Earlier results, collected in patent publication US10034846B2, “Famciclovir and celecoxib combination therapy for functional somatic syndromes” (INNOVATIVE MED CONCEPTS, LLC, priority 2012, dated 2018).

System: fibromyalgia patients
Settings: Kendall et al., J. Rheumatology (2004) 31, 783-784

Which “Treatment of fibromyalgia patients” value does the source give for `CC(C)[C@H](N)C(=O)OCCOCn1cnc2c(=O)[nH]c(N)nc21` [valacyclovir] here?
Its value is “not successful”.
